In PubChem BioAssay (NCI) one finds TGI and GI50 data, which are given here for 16 compounds.

Some test systems named below: CCRF-CEM leukemia; HOP-92 NSCLC; K-562 leukemia; LOX IMVI melanoma; NCI-H460 lung; RPMI-8226 leukemia; SN12C renal; SNB-19 CNS; SW-620 colon; UACC-62 melanoma.
Common to all, as to test: inhibition of tumour cell growth, NCI panel, 48 h

Structures are written as SMILES.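 Method: 48-hour compound exposure of cells in 96-well plates, five concentrations, linear interpolation of endpoints. Abbreviation: GI50, concentration required for 50% inhibition of growth. TGI: total growth inhibition.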

For `COc1cc(-c2oc3c(OC)c(O)cc(O)c3c(=O)c2OC)ccc1O`, the TGI was 24.9 µM in the assay on CCRF-CEM leukemia; 15.5 µM with HOP-92 NSCLC; above 100 µM with K-562 leukemia; above 55.8 µM with LOX IMVI melanoma; above 93.5 µM with NCI-H460 lung; 46.3 µM in the assay on RPMI-8226 leukemia. Besides, the TGI was above 100 µM in the assay on SN12C renal, above 100 µM with SNB-19 CNS, above 100 µM in the assay on SW-620 colon and 24.6 µM with UACC-62 melanoma.
Turning to `COC(=O)c1nc(N)nc(C(=O)OC)c1C(=O)c1ccccc1`, the TGI with CCRF-CEM leukemia, in the assay on HOP-92 NSCLC, with K-562 leukemia, in the assay on LOX IMVI melanoma, in the assay on NCI-H460 lung and with RPMI-8226 leukemia was above 100 µM in each case. Further, the TGI in the assay on SN12C renal, in the assay with SNB-19 CNS, with SW-620 colon and with UACC-62 melanoma was above 100 µM throughout.
Consider `Nc1ccccc1C#C/C=C\C#Cc1ccccc1F`, for which the GI50 with CCRF-CEM leukemia was 0.729 µM; in the assay with HOP-92 NSCLC it was 17.9 µM; with K-562 leukemia, 3.38 µM; in the assay on LOX IMVI melanoma it was 4.07 µM; in the assay on NCI-H460 lung, 6.17 µM; with RPMI-8226 leukemia it was 2.66 µM. Moreover, the GI50 was 7.37 µM in the assay with SN12C renal, 16 µM in the assay on SW-620 colon and 7.72 µM in the assay with UACC-62 melanoma. Moreover, the TGI in the assay on CCRF-CEM leukemia is 7.14 µM; in the assay on HOP-92 NSCLC it was above 100 µM; with K-562 leukemia, above 100 µM; in the assay with LOX IMVI melanoma, 14.2 µM; in the assay with NCI-H460 lung, 21.2 µM; in the assay on RPMI-8226 leukemia it was 23.8 µM. Also, the TGI in the assay on SN12C renal is 20.9 µM; in the assay with SW-620 colon, above 100 µM; in the assay on UACC-62 melanoma, 21 µM.
As to `CN(C)N=Nc1nn(C(=O)Nc2ccc(Cc3ccccc3)cc2)c2ccccc12`, the GI50 in the assay with CCRF-CEM leukemia is 4.42 µM; with HOP-92 NSCLC, 6.47 µM; in the assay on K-562 leukemia, 0.0373 µM; in the assay with LOX IMVI melanoma it was 0.0625 µM; in the assay on NCI-H460 lung it was 0.111 µM; in the assay with RPMI-8226 leukemia, 5.06 µM. Besides, the GI50 in the assay on SN12C renal was above 100 µM; with SNB-19 CNS, above 100 µM; with SW-620 colon, 0.199 µM; in the assay on UACC-62 melanoma it was 0.0385 µM. Besides, the TGI is above 100 µM in the assay with CCRF-CEM leukemia; above 100 µM in the assay on HOP-92 NSCLC; above 100 µM in the assay with K-562 leukemia; above 73.3 µM in the assay with LOX IMVI melanoma; above 100 µM with NCI-H460 lung; above 100 µM with RPMI-8226 leukemia. The TGI with SN12C renal is above 100 µM; in the assay with SNB-19 CNS, above 100 µM; with SW-620 colon, above 100 µM; in the assay with UACC-62 melanoma it was 1.65 µM.
Consider `O=C1NC(SCc2ccc(F)cc2)=N/C1=C/c1cccc(OCc2ccc(Cl)cc2)c1`, for which the GI50 with CCRF-CEM leukemia is 64.2 µM; with HOP-92 NSCLC, 67.7 µM; with K-562 leukemia, 28.8 µM; in the assay with LOX IMVI melanoma, 6 µM; in the assay with NCI-H460 lung, 4.39 µM; in the assay with RPMI-8226 leukemia, above 100 µM. Besides, the GI50 with SN12C renal was 4.52 µM; in the assay on SNB-19 CNS it was 21.7 µM; in the assay with SW-620 colon it was 20 µM; in the assay on UACC-62 melanoma, above 100 µM. Also, the TGI with CCRF-CEM leukemia was above 100 µM; in the assay with HOP-92 NSCLC, above 100 µM; with K-562 leukemia, above 100 µM; in the assay with LOX IMVI melanoma, above 100 µM; with NCI-H460 lung, 30.3 µM; in the assay with RPMI-8226 leukemia, above 100 µM. Moreover, the TGI in the assay on SN12C renal, in the assay on SNB-19 CNS, in the assay on SW-620 colon and in the assay with UACC-62 melanoma was above 100 µM each time.
On to `Cc1cc(Cl)ccc1NC(=O)C(=O)Cc1occc(=O)c1O`, for which the TGI in the assay on CCRF-CEM leukemia, with HOP-92 NSCLC, in the assay with K-562 leukemia, with LOX IMVI melanoma, with NCI-H460 lung and in the assay on RPMI-8226 leukemia was above 100 µM throughout. Also, the TGI in the assay with SN12C renal, in the assay with SNB-19 CNS, with SW-620 colon and in the assay with UACC-62 melanoma was above 100 µM each time.
As for `Nc1cc(-c2ccccc2)n(C(=O)Nc2ccc(Oc3ccccc3)cc2)n1`, the GI50 with CCRF-CEM leukemia was 18.9 µM; with HOP-92 NSCLC, 24.2 µM; in the assay on K-562 leukemia, above 100 µM; in the assay with LOX IMVI melanoma it was above 100 µM; in the assay with NCI-H460 lung, 69 µM; in the assay with RPMI-8226 leukemia, 19.7 µM. Besides, the GI50 is 80.3 µM in the assay with SN12C renal, 91.5 µM in the assay on SNB-19 CNS, above 100 µM in the assay on SW-620 colon and above 100 µM with UACC-62 melanoma. Moreover, the TGI with CCRF-CEM leukemia was 93.3 µM; in the assay on HOP-92 NSCLC, above 100 µM; in the assay on K-562 leukemia it was above 100 µM; with LOX IMVI melanoma it was above 100 µM; in the assay on NCI-H460 lung it was above 100 µM; in the assay with RPMI-8226 leukemia it was above 100 µM. Further, the TGI in the assay with SN12C renal, with SNB-19 CNS, in the assay on SW-620 colon and in the assay with UACC-62 melanoma was above 100 µM throughout.
For `c1ccc(/C(=N\Nc2ccc3ccccc3n2)c2ccccn2)cc1`, the GI50 with CCRF-CEM leukemia is 0.298 µM; in the assay with HOP-92 NSCLC, 0.551 µM; in the assay with K-562 leukemia it was 0.649 µM; in the assay on LOX IMVI melanoma, 0.457 µM; in the assay on NCI-H460 lung it was 0.414 µM; with RPMI-8226 leukemia, 0.503 µM. For the same compound, the GI50 with SN12C renal was 0.507 µM; in the assay with SNB-19 CNS it was 1.29 µM; in the assay on SW-620 colon, 0.699 µM; in the assay with UACC-62 melanoma it was 0.549 µM. Moreover, the TGI came to 1.47 µM in the assay with CCRF-CEM leukemia; 19.8 µM with HOP-92 NSCLC; 6.52 µM in the assay with K-562 leukemia; 5.61 µM in the assay with LOX IMVI melanoma; 11.3 µM with NCI-H460 lung; 3.68 µM in the assay on RPMI-8226 leukemia. Besides, the TGI was 25.6 µM in the assay with SN12C renal, above 59.3 µM in the assay with SNB-19 CNS, 15.3 µM in the assay with SW-620 colon and 7.41 µM in the assay on UACC-62 melanoma.
On to `Cc1ccc(-c2c3c(N)c4c(nc3nc3c2c(C)nn3-c2ccccc2)CCC4)cc1`, for which the GI50 is 2.54 µM in the assay with CCRF-CEM leukemia; 15.7 µM in the assay with HOP-92 NSCLC; 2.42 µM in the assay with K-562 leukemia; 1.98 µM with LOX IMVI melanoma; 2.02 µM with NCI-H460 lung; 2.23 µM in the assay on RPMI-8226 leukemia. Further, the GI50 in the assay with SN12C renal was 1.83 µM; in the assay with SNB-19 CNS it was 3.85 µM; in the assay with SW-620 colon, 2.6 µM; in the assay with UACC-62 melanoma, 18.6 µM. For the same compound, the TGI in the assay on CCRF-CEM leukemia worked out at 7.2 µM; with HOP-92 NSCLC, 36.3 µM; in the assay on K-562 leukemia, 6.56 µM; with LOX IMVI melanoma, 3.99 µM; in the assay with NCI-H460 lung, 4.44 µM; in the assay on RPMI-8226 leukemia it was 5.53 µM. The TGI amounted to 3.74 µM with SN12C renal, 18 µM in the assay on SNB-19 CNS, 9.57 µM in the assay on SW-620 colon and 35.7 µM with UACC-62 melanoma.
`Cn1c2ccccc2c2[nH]c3ccccc3c(=O)c21`: the TGI in the assay on CCRF-CEM leukemia, with HOP-92 NSCLC, in the assay on K-562 leukemia, with LOX IMVI melanoma, with NCI-H460 lung and in the assay with RPMI-8226 leukemia was above 100 µM throughout. Moreover, the TGI in the assay with SN12C renal, in the assay with SNB-19 CNS, in the assay on SW-620 colon and in the assay with UACC-62 melanoma was above 100 µM each time.
For `O=S(=O)(N/N=C/c1ccc(Cl)cc1Cl)c1ccccc1`, the TGI with CCRF-CEM leukemia was above 100 µM; with HOP-92 NSCLC it was 94.9 µM; with K-562 leukemia, above 100 µM; in the assay with LOX IMVI melanoma, above 100 µM; in the assay on RPMI-8226 leukemia, above 100 µM; in the assay with SN12C renal, above 100 µM. The TGI in the assay with SW-620 colon and in the assay on UACC-62 melanoma was above 100 µM each time.
Turning to `CC(=O)O/N=C/c1cc2c(cc1Br)OCO2`, the TGI in the assay with CCRF-CEM leukemia, in the assay on HOP-92 NSCLC, in the assay with K-562 leukemia, with LOX IMVI melanoma, with NCI-H460 lung and in the assay on RPMI-8226 leukemia was above 349 µM in each case. In addition, the TGI in the assay on SN12C renal, with SW-620 colon and in the assay on UACC-62 melanoma was above 349 µM in each case.
Regarding `OC1c2ccccc2C2C(O)c3ccccc3C12` (stereo unspecified), the TGI with CCRF-CEM leukemia, in the assay with HOP-92 NSCLC, with K-562 leukemia, in the assay with LOX IMVI melanoma, in the assay on NCI-H460 lung and in the assay on RPMI-8226 leukemia was above 100 µM each time. Moreover, the TGI in the assay on SN12C renal, in the assay on SW-620 colon and with UACC-62 melanoma was above 100 µM throughout.
For the compound `NNC(=S)N/N=C(/C(=O)Nc1ccc([N+](=O)[O-])cc1)c1nc2ccc([N+](=O)[O-])cc2[nH]c1=O`, the TGI with CCRF-CEM leukemia, with HOP-92 NSCLC, in the assay with K-562 leukemia, in the assay on LOX IMVI melanoma, with NCI-H460 lung and in the assay on RPMI-8226 leukemia was above 100 µM throughout. Besides, the TGI with SN12C renal, with SW-620 colon and in the assay on UACC-62 melanoma was above 100 µM in each case.
As for `[O-][n+]1c2cc(CN3CCOCC3)c(CN3CCOCC3)cc2[n+]([O-])c2c(O)cccc21`, the TGI in the assay on CCRF-CEM leukemia was found to be 4.02 µM; with HOP-92 NSCLC, 10.4 µM; in the assay on LOX IMVI melanoma, 16.3 µM; in the assay with NCI-H460 lung, 4.5 µM; in the assay on RPMI-8226 leukemia it was 12.2 µM; with SN12C renal it was 13 µM. The TGI in the assay on SNB-19 CNS is above 40.8 µM; in the assay with SW-620 colon, 7.16 µM; in the assay with UACC-62 melanoma, 12.9 µM.
`CC1CC(=O)c2c(ccc3c2C(=O)c2cccc(O)c2C3=O)C1` (stereo unspecified): the TGI with CCRF-CEM leukemia came out at 7.97 µM; in the assay on HOP-92 NSCLC it was 13.1 µM; in the assay with K-562 leukemia it was 10.6 µM; with LOX IMVI melanoma it was 16 µM; with NCI-H460 lung, 19.5 µM; in the assay with RPMI-8226 leukemia, 39.1 µM. Further, the values for the TGI in the assay with SNB-19 CNS, in the assay with SW-620 colon and with UACC-62 melanoma were 26.1 µM, 17.4 µM and 22.4 µM, respectively.
